Measured values taken from patent US8735322B2, “Herbicides” (Syngenta Limited, priority 2008, dated 2014).

Columns and labels:
[1] = system: Echinochloa crus-galli (ECHCG); test: Example A pre-emergence herbicidal activity, glasshouse pot test; type: in vivo; details: 480 h, rate 500 g/ha, evaluated 20 days later, 100=total damage to plant, 0=no damage to plant
Method: (§1) Seeds of a variety of test species were sown in standard soil in pots. After cultivation for one day (pre-emergence) or after 10 days cultivation (post-emergence) under controlled conditions in a glasshouse, the plants were sprayed with an aqueous spray solution derived from the formulation of the technical active ingredient in 0.6 ml acetone and 45 ml formulation solution containing 10.6% Emulsogen EL (Registry number 61791-12-6), 42.2% N-methylpyrrolidone, 42.2% dipropylene glycol monomethyl ether (Registry number 34590-94-8) and 0.2% X-77 (Registry number 11097-66-8). The test plants were then grown in a greenhouse under optimum conditions until, 15 days later for post-emergence and 20 days for pre-emergence, the test was evaluated (100=total damage to plant; 0=no damage to plant). Alopecurus myosuroides (ALOMY), Avena fatua (AVEFA), Lolium perenne (LOLPE), Setaria faberi (SETFA), Digitaria sanguinalis (DIGSA), Echinochloa crus-galli (ECHCG) Pre-Emergence Activity

[2] = system: Alopecurus myosuroides (ALOMY); test: as above; type: in vivo; details: 480 h, rate 500 g/ha, evaluated 20 days later, 100=total damage to plant, 0=no damage to plant
Method: as §1

[3] = system: Digitaria sanguinalis (DIGSA); test: as above; type: in vivo; details: 480 h, rate 500 g/ha, evaluated 20 days later, 100=total damage to plant, 0=no damage to plant
Method: as §1

[4] = system: Avena fatua (AVEFA); test: as above; type: in vivo; details: 480 h, rate 500 g/ha, evaluated 20 days later, 100=total damage to plant, 0=no damage to plant
Method: as §1

[5] = system: Setaria faberi (SETFA); test: as above; type: in vivo; details: 480 h, rate 500 g/ha, evaluated 20 days later, 100=total damage to plant, 0=no damage to plant
Method: as §1

[6] = system: Lolium perenne (LOLPE); test: as above; type: in vivo; details: 480 h, rate 500 g/ha, evaluated 20 days later, 100=total damage to plant, 0=no damage to plant
Method: as §1

[7] = system: Echinochloa crus-galli (ECHCG); test: Example A post-emergence herbicidal activity, glasshouse pot test; type: in vivo; details: 360 h, evaluated 15 days after spraying, read-out: herbicidal damage ECHCG (100=total damage to plant; 0=no damage to plant); for pest or weed control at 500 g/ha: rate 500 g/ha
Method: as §1, with “Post Emergency” for “Pre-Emergence”

[8] = system: Alopecurus myosuroides (ALOMY); test: as above; type: in vivo; details: 360 h, evaluated 15 days after spraying, read-out: herbicidal damage ALOMY (100=total damage to plant; 0=no damage to plant); for pest or weed control at 500 g/ha: rate 500 g/ha
Method: as §1, with “Post Emergency” for “Pre-Emergence”

[9] = system: Digitaria sanguinalis (DIGSA); test: as above; type: in vivo; details: 360 h, evaluated 15 days after spraying, read-out: herbicidal damage DIGSA (100=total damage to plant; 0=no damage to plant); for pest or weed control at 500 g/ha: rate 500 g/ha
Method: as §1, with “Post Emergency” for “Pre-Emergence”

[10] = system: Avena fatua (AVEFA); test: as above; type: in vivo; details: 360 h, evaluated 15 days after spraying, read-out: herbicidal damage AVEFA (100=total damage to plant; 0=no damage to plant); for pest or weed control at 500 g/ha: rate 500 g/ha
Method: as §1, with “Post Emergency” for “Pre-Emergence”

[11] = system: Setaria faberi (SETFA); test: as above; type: in vivo; details: 360 h, evaluated 15 days after spraying, read-out: herbicidal damage SETFA (100=total damage to plant; 0=no damage to plant); for pest or weed control at 500 g/ha: rate 500 g/ha
Method: as §1, with “Post Emergency” for “Pre-Emergence”

[12] = system: Lolium perenne (LOLPE); test: as above; type: in vivo; details: 360 h, evaluated 15 days after spraying, read-out: herbicidal damage LOLPE (100=total damage to plant; 0=no damage to plant); for pest or weed control at 500 g/ha: rate 500 g/ha
Method: as §1, with “Post Emergency” for “Pre-Emergence”

[13] = system: Echinochloa crus-galli (ECHCG); test: Example B pre-emergence herbicidal activity, glasshouse pot test; type: in vivo; details: 312 h, rate 1000 g/ha, evaluated after 13 days, read-out: herbicidal damage ECHCG (100=total damage to plant; 0=no damage to plant)
Method: (§2) Seeds of a variety of test species were sown in standard soil in pots. After cultivation for one day (pre-emergence) or after 8 days cultivation (post-emergence) under controlled conditions in a glasshouse (at 24/16° C., day/night; 14 hours light; 65% humidity), the plants were sprayed with an aqueous spray solution derived from the formulation of the technical active ingredient in acetone/water (50:50) solution containing 0.5% Tween 20 (polyoxyethelyene sorbitan monolaurate, CAS RN 9005-64-5). The test plants were then grown in a glasshouse under controlled conditions in a glasshouse (at 24/16° C., day/night; 14 hours light; 65% humidity) and watered twice daily. After 13 days for pre and post-emergence, the test was evaluated (100=total damage to plant; 0=no damage to plant). Alopecurus myosuroides (ALOMY), Avena fatua (AVEFA), Setaria faberi (SETFA), Echinochloa crus-galli (ECHCG), Solanum nigrum (SOLNI) and Amaranthus retroflexus (AMARE) Pre-Emergence Activity

[14] = system: Alopecurus myosuroides (ALOMY); test: as above; type: in vivo; details: 312 h, rate 1000 g/ha, evaluated after 13 days, read-out: herbicidal damage ALOMY (100=total damage to plant; 0=no damage to plant)
Method: as §2

[15] = system: Amaranthus retroflexus (AMARE); test: as above; type: in vivo; details: 312 h, rate 1000 g/ha, evaluated after 13 days, read-out: herbicidal damage AMARE (100=total damage to plant; 0=no damage to plant)
Method: as §2

[16] = system: Avena fatua (AVEFA); test: as above; type: in vivo; details: 312 h, rate 1000 g/ha, evaluated after 13 days, read-out: herbicidal damage AVEFA (100=total damage to plant; 0=no damage to plant)
Method: as §2

[17] = system: Solanum nigrum (SOLNI); test: as above; type: in vivo; details: 312 h, rate 1000 g/ha, evaluated after 13 days, read-out: herbicidal damage SOLNI (100=total damage to plant; 0=no damage to plant)
Method: as §2

[18] = system: Setaria faberi (SETFA); test: as above; type: in vivo; details: 312 h, rate 1000 g/ha, evaluated after 13 days, read-out: herbicidal damage SETFA (100=total damage to plant; 0=no damage to plant)
Method: as §2

[19] = system: Echinochloa crus-galli (ECHCG); test: Example B post-emergence herbicidal activity, glasshouse pot test; type: in vivo; details: 312 h, rate 1000 g/ha, evaluated after 13 days, read-out: herbicidal damage ECHCG (100=total damage to plant; 0=no damage to plant)
Method: as §2, with “Post-Emergence” for “Pre-Emergence”

[20] = system: Alopecurus myosuroides (ALOMY); test: as above; type: in vivo; details: 312 h, rate 1000 g/ha, evaluated after 13 days, read-out: herbicidal damage ALOMY (100=total damage to plant; 0=no damage to plant)
Method: as §2, with “Post-Emergence” for “Pre-Emergence”

[21] = system: Amaranthus retroflexus (AMARE); test: as above; type: in vivo; details: 312 h, rate 1000 g/ha, evaluated after 13 days, read-out: herbicidal damage AMARE (100=total damage to plant; 0=no damage to plant)
Method: as §2, with “Post-Emergence” for “Pre-Emergence”

[22] = system: Avena fatua (AVEFA); test: as above; type: in vivo; details: 312 h, rate 1000 g/ha, evaluated after 13 days, read-out: herbicidal damage AVEFA (100=total damage to plant; 0=no damage to plant)
Method: as §2, with “Post-Emergence” for “Pre-Emergence”

[23] = system: Solanum nigrum (SOLNI); test: as above; type: in vivo; details: 312 h, rate 1000 g/ha, evaluated after 13 days, read-out: herbicidal damage SOLNI (100=total damage to plant; 0=no damage to plant)
Method: as §2, with “Post-Emergence” for “Pre-Emergence”

[24] = system: Setaria faberi (SETFA); test: as above; type: in vivo; details: 312 h, rate 1000 g/ha, evaluated after 13 days, read-out: herbicidal damage SETFA (100=total damage to plant; 0=no damage to plant)
Method: as §2, with “Post-Emergence” for “Pre-Emergence”

Row | SMILES | pest or weed control at 500 g/ha [1] | pest or weed control at 500 g/ha [2] | pest or weed control at 500 g/ha [3] | pest or weed control at 500 g/ha [4] | pest or weed control at 500 g/ha [5] | pest or weed control at 500 g/ha [6] | pest or weed control at 500 g/ha [7] | pest or weed control at 500 g/ha [8] | pest or weed control at 500 g/ha [9] | pest or weed control at 500 g/ha [10] | pest or weed control at 500 g/ha [11] | pest or weed control at 500 g/ha [12] | melting point | other results
1 | Cc1cc(C)c(C2=C(O)CC(CC3CCOC3)CC2=O)c(C)c1 (centres unmarked) [Compound A-1, 2-(2,4,6-trimethylphenyl)-5-(tetrahydrofuran-3-ylmethyl)cyclohexane-1,3-dione] | 50% | 70% | 100% | 40% | 90% | 80% | 90% | 70% | 100% | 80% | 100% | 70% | 62 to 64 °C | 
2 | CCc1ccccc1C1=C(O)CC(CC2CCOCC2)CC1=O (centres unmarked) [Compound A-31] | 70% | 60% | 100% | 50% | 100% | 40% |  |  |  |  |  |  |  | pest or weed control at 1000 g/ha [13]: 100%; pest or weed control at 1000 g/ha [14]: 100%; pest or weed control at 1000 g/ha [15]: 0%; pest or weed control at 1000 g/ha [16]: 40%; pest or weed control at 1000 g/ha [17]: 0%; pest or weed control at 1000 g/ha [18]: 100%; pest or weed control at 125 g/ha ([7]; rate 125 g/ha): 50%; pest or weed control at 125 g/ha ([8]; rate 125 g/ha): 60%; pest or weed control at 125 g/ha ([9]; rate 125 g/ha): 30%; pest or weed control at 125 g/ha ([10]; rate 125 g/ha): 60%; pest or weed control at 125 g/ha ([11]; rate 125 g/ha): 40%; pest or weed control at 125 g/ha ([12]; rate 125 g/ha): 60%; pest or weed control at 1000 g/ha [19]: 100%; pest or weed control at 1000 g/ha [20]: 100%; pest or weed control at 1000 g/ha [21]: 0%; pest or weed control at 1000 g/ha [22]: 90%; pest or weed control at 1000 g/ha [23]: 0%; pest or weed control at 1000 g/ha [24]: 100%
3 | Cc1cc(C)c(C2=C(OC(=O)C(C)(C)C)CC(CC3CCOC3)CC2=O)c(C)c1 (centres unmarked) [Compound B-1, 2,2-dimethylpropionic acid 3-oxo-5-(tetrahydrofuran-3-ylmethyl)-2-(2,4,6-trimethylphenyl)cyclohex-1-enyl Ester] | 100% | 90% | 100% | 50% | 80% | 90% | 70% | 50% | 90% | 0% | 80% | 60% | 108 to 110 °C | 
